Assay results from publication PMC11172460 (International Journal of Molecular Sciences, 2024).
In brackets after ≈: the same amount, converted by molar mass. Several values for one entry are separate records, joined by “and”; a condition that tells them apart may be missing. Equal values may be shown once. Read-outs that look alike come from different tables or passages of the source.

How the values were obtained:
[1] = Hydrolysis in rat liver homogenates of free or SLM-encapsulated Fer-Ger; format: in vitro ADME
Method: Since SLMs were suspended in the medium, it was difficult to withdraw several homogeneous samples, and consequently, stability was assessed by a single sampling after 10 min of incubation. Dichloromethane (1 mL) was added, and 250 μL was withdrawn from the samples and quenched in 500 μL of ice-cold ethanol added with 100 μL of internal standard (100 μM carbazole dissolved in ethanol). After 5 min of centrifugation at 16,000× g, 600 μL aliquots were reduced to dryness under a nitrogen stream. […] The same procedure was adopted for free Fer-Ger by adding appropriate amounts of stock solution in DMSO to a volume of 3 mL of rat liver homogenates in order to obtain the final concentration of 30 µM (9.92 µg/mL). In this case, the Fer-Ger hydrolysis was analyzed both in the absence or in the presence of unloaded Ts SLMs or Ts-glu SLMs, whose amounts were equivalent to those of their parent-loaded FG Ts SLMs or FG Ts-glu SLMs, respectively. All the values obtained are the means of four independent experiments.

[2] = Hydrolysis kinetics in human whole blood; format: in vitro ADME
Method: Kinetic analysis of Fer-Ger was performed by incubating the compound at 37 °C in heparinized whole blood obtained from healthy human volunteers or from male Wistar rats weighing 200–250 g. In particular, appropriate amounts of stock solution in DMSO were added to a volume of 3 mL of whole blood in order to obtain the final concentration of 30 µM (9.92 µg/mL). Samples (100 μL) were withdrawn at defined time intervals and immediately treated. Specifically, they were firstly added to ice-cold water (500 µL); then, sulfosalicylic acid (10%, 50 µL) and the internal standard (100 μM carbazole dissolved in a mixture of MeOH and H2O 50:50 v/v, 50 µL) were added; finally, 1 mL of H2O-saturated ethyl acetate was used twice as extraction solvent. The samples were centrifuged (13,500× g for 10 min) and the organic phase was evaporated under a nitrogen stream. The residue was re-suspended in a mixture of H2O and CH3CN (50:50 v/v, 150 µL) and centrifuged (16,000× g for 5 min). […]
The Fer-Ger degradation in whole blood or homogenates was analyzed as exponential decay plots of its concentrations versus incubation time, and the related half-life values were obtained from the linear regression of the corresponding semi-logarithmic plots. The quality of the fits was evaluated by considering the correlation coefficients (r) and p values. […]
Fer-Ger and its hydrolysis product, Ger, were quantified by HPLC. […]

[3] = Solubility measurements; format: physicochemical; conditions: 25 °C, thermodynamic from solid
Method: Solubility measurements of pure Fer-Ger were performed by adding an excess amount of Fer-Ger (about 10 mg) in 5 mL of pure water, DPBS, or a mixture made of DPBS and methanol (70:30 v/v) at 25 °C. The samples were magnetically stirred for 48 h. The supernatant was filtered through a 0.45 μm regenerate-cellulose membrane filter, and 10 µL of the filtered samples were injected into the HPLC-DAD system for Fer-Ger quantification. The study was performed in triplicate.

[4] = system: neuronal differentiated N2a cells; assay: MTT assay for evaluation of Fer-Ger toxicity; format: cell-based, mouse; conditions: 1 h exposure
Method: N2a cells were seeded on T75 flasks and grown in Dulbecco’s Modified Eagle Medium (DMEM) containing Glutamax, supplemented with 100 μg/mL streptomycin, 100 IU/mL penicillin, and 10% fetal bovine serum (FBS) in a humidified 5% CO2 atmosphere at 37 °C. After two passages by trypsinization, cells were seeded at a density of 5 × 10^3 cells/well in 12-well plates with 2 mL of DMEM or at a density of 5 × 10^2 cells/well in 96-well plates with 0.2 mL of DMEM, depending on the study (see below). […]
The potential neurotoxicity of Fer-Ger in N2a differentiated cells, seeded at a density of 5 × 10^2 cells/well in a 96-well plate as reported above, was assayed with the 3-(4,5-dimethylthiazol-2-yl)-2,5-diphenyltetrazolium (MTT) test after incubation for 1 h at 37 °C in a humidified 5% of CO2 atmosphere at 37 °C with increasing concentrations (1, 5, 10, 40, 70, 100 µM) of Fer-Ger dissolved in 0.2 mL of DPBS, supplemented with 0.9 mM CaCl2, 0.5 mM MgCl2, 5.3 mM glucose, and 0.1% BSA to ensure the solubilization of the compound in aqueous media. […] Finally, the absorbance of each well was measured at 570 nm using a microtiter plate reader (Sunrise® Microplate Reader, Tecan Trading AG, Männedorf, Switzerland). The values were expressed as cell vitality percentages with respect to control in the absence of compounds. […]

[5] = Kinetic analysis (stability) in Tris-HCl buffer; format: physicochemical; conditions: Tris-HCl buffer pH 7.4 (with MeOH 70:30), 37 °C, three hours, 20 µM
Method: Kinetic analysis of Fer-Ger was performed by its incubation at 20 µM (6.61 µg/mL) final concentration and at 37 °C in 30 mL of a mixture of Tris-HCl buffer 50 mM (pH 7.4) and MeOH 70:30 (v/v). […] All the values were derived from the mean of three independent incubation experiments.
Fer-Ger and its hydrolysis product, Ger, were quantified by HPLC. The chromatographic apparatus consisted of a modular system (model LC-40D) pump and DAD detector (model SPD-M40, Shimadzu, Kyoto, Japan) and an injection valve with a 20 μL sample loop (model 7725; Rheodyne, IDEX, Torrance, CA, USA).

COc1cc(/C=C/C(=O)OC/C=C(\C)CCC=C(C)C)ccc1O [Fer-Ger, Geranyl ferulate]
hydrolysis rate in the presence of unloaded SLMs ([1]; free Fer-Ger in rat liver homogenates with unloaded SLMs): substantially unaffected | prodrug hydrolyzed ([1]; free solubilized prodrug, 10 min incubation in rat liver homogenates, about 30 μM): about 90% | remaining amount of Fer-Ger ([2]; after three hours of incubation in human whole blood, % of overall incubated amount): about 50% | half-life at 30 µM ([2]; heparinized whole blood, human whole blood, 37 °C, 30 µM, pseudo-first order kinetic, read-out: half-life (t1/2) of hydrolysis): 3.23 ± 0.349 h | solubility at 48 h ([3]; DPBS, aqueous buffer, read-out: solubility in DPBS): 0.24 ± 0.01 µg/mL (≈ 0.726 µM) | solubility at 48 h ([3]; DPBS/methanol 70:30 v/v, aqueous with cosolvent or surfactant or cyclodextrin, DPBS and MeOH 70:30 v/v, read-out: solubility in mixture of DPBS and MeOH): 8.1 ± 0.3 µg/mL (≈ 24.5 µM) | solubility at 48 h ([3]; pure water, water, read-out: water solubility): 0.26 µg/mL and 0.77 µM | concentration at which neurotoxic effect starts ([4]; p < 0.05 vs untreated cells): 40 µM | IC50 ([4]; Mus musculus, neuronal differentiated N2a cells, read-out: IC50 value of cell viability): 84.09 ± 0.26 µM | degradation in Tris-HCl buffer [5]: not degraded
